The source of these data is article PMC12658631, “Synthesis and Antitrypanosomal Activity of Novel 2‑Nitroimidazole-3,5-Disubstituted Isoxazole Derivatives with Diaryl Ether and Thioether Substituents” (ACS Omega, 2025).

In series [1] the test system is T. cruzi intracellular amastigotes (Tulahuen lacZ strain). Kind of series: Antitrypanosomal assay, intracellular amastigotes in LLC-MK2 cells, CPRG readout. It counts as cell-based, Trypanosoma cruzi. Particulars: for IC50: Trypanosoma cruzi, read-out: Amastigote IC50 (μM ± SD); for activity category (active / moderately active / inactive): category by amastigote IC50. The procedure:
(§1) The cytotoxicity evaluation and the determination of the selectivity index (SI) were done on LLC-MK2 cells.
Initially, 5 × 10^3 LLC-MK2 cells/well were infected with trypomastigotes in 96-well plates at a parasite/cell ratio of 10:1. After 48 h, plates were washed twice with PBS before adding compounds in a serial dilution range of 100 μM to 0.78 μM in fresh RPMI 1640 medium (Sigma-Aldrich). As a control, infected untreated cells (100% infection control) were employed. Following 72 h of incubation, amastigote viability tests were performed using 50 μL of PBS containing 2% Triton X-100 and 200 μM CPRG. Tulahuen lacZ strain expressing galactosidase enzyme were used, which catalyzes the yellow reagent of CPRG into a red chromophore that can be easily detected by absorbance at 570 nm after 4 h at 37 °C (microplate reader – Synergy H1). The percentage of amastigotes inhibition (IC50) was calculated as 100-(absorbance of treated infected cells)/(absorbance mean of untreated infected cells) × 100.

Series [2] can be described thus: Cytotoxicity assay (MTT). It counts as cell-based. The note with it: rhesus monkey, LLC-MK2 cells, read-out: LLC-MK2 CC50 (μM ± SD). As to the method: as §1
To assess chemical cytotoxicity, MTT (3-(4,5-Dimethyl-2-thiazolyl)-2,5-diphenyl-2H-tetrazolium bromide, Sigma-Aldrich)-based kit reagents were employed. LLC-MK2 cells were incubated in 96-well plates for 48 h at a concentration of 5 × 10^3 cells/well. Cells were then washed twice with PBS (Sigma-Aldrich) before being incubated with compounds in a serial dilution from 200 μM to 1.56 μM in fresh RPMI 1640 medium (Sigma-Aldrich). After 72 h, 50 μL of MTT solution (2.0 mg/mL) was added to each well, and the plates were incubated for another 4 h at 37 °C. The resultant formazan crystals were dissolved in DMSO (50 μ L/well) and measured at 570 nm 30 min later in a Synergy H1 microplate reader. Cytotoxic concentration of 50% (CC50) was calculated based on a dose–response curve excluding DMSO cytotoxicity (>1%) of the untreated control.

Series [3] has as its system T. cruzi amastigote forms. Particulars: triazole with diphenyl ether substituent; ref Assunção et al.; read-out: IC50 against T. cruzi amastigote forms; cited from earlier work.
Setting [4] is: LLC-MK2, T. cruzi intracellular amastigotes, Tulahuen lacZ strain, 72 h incubation.
Setting [5] is: ratio of amastigote IC50 values.

Like-named read-outs stand apart in the source and are kept apart here.

Regarding `O=[N+]([O-])c1nccn1Cc1cc(-c2ccc(Sc3ccccc3)cc2)no1` [Compound 6o, 5-((2-Nitro-1H-imidazol-1-yl)methyl)-3-(4-(phenylthio)phenyl)isoxazole], in series [1], the “SI, selectivity index: CC50 of LLC-MK2 cells/IC50 of intracellular amastigotes” value (“SI, selectivity index: CC50” for short) was over 4.9 and the “activity category (active / moderately active / inactive)” value is recorded as “moderate activity”. Moreover, in series [1] (setting [4]), the half-maximal inhibitory concentration (IC50) is 20.6 ± 0.98 µM. Further, the 50% cytotoxic concentration (CC50) at 72 h in series [2] was over 100 µM.

With `O=[N+]([O-])c1nccn1Cc1cc(-c2ccc(Oc3ccc(Cl)c(Cl)c3)cc2)no1` [Compound 6d, 3-(4-(3,4-Dichlorophenoxy)phenyl)-5-((2-nitro-1H-imidazol-1-yl)methyl)isoxazole], in series [1], the “SI, selectivity index: CC50” value is listed as over 35.9 and the “activity category (active / moderately active / inactive)” value is “active”. For the same compound, the IC50 in series [1] (setting [4]) came to 2.79 ± 0.93 µM. The CC50 at 72 h in series [2] was over 100 µM.

In the case of `Cc1ccc(Oc2ccc(-c3cc(Cn4ccnc4[N+](=O)[O-])on3)cc2)cc1` [Compound 6f, 5-((2-Nitro-1H-imidazol-1-yl)methyl)-3-(4-(P-tolyloxy)phenyl)isoxazole], in series [1], the “SI, selectivity index: CC50” value is recorded as over 56.5. Also, the IC50 in series [1] (setting [4]) amounted to 1.77 ± 0.24 µM. Also, the CC50 at 72 h in series [2] was over 100 µM.

Consider `O=C(Cn1ccnc1[N+](=O)[O-])NCc1ccccc1` [BZN, benznidazole, reference compound], for which the “SI, selectivity index: CC50” value in series [1] was over 17.6. Besides, the IC50 in series [1] (setting [4]) is 5.67 ± 0.83 µM. For the same compound, the CC50 at 72 h in series [2] was over 100 µM.

In the case of `O=[N+]([O-])c1nccn1Cc1cc(-c2ccc(Oc3ccccc3)cc2)no1` [Compound 6a, 5-((2-Nitro-1H-imidazol-1-yl)methyl)-3-(4-phenoxyphenyl)isoxazole], the “SI, selectivity index: CC50” value in series [1] was over 82.2. The 50% inhibitory concentration (IC50) in series [1] (setting [4]) turned out to be 1.22 ± 0.73 µM. Also, in series [1] (setting [5]), the “fold more active than the reference drug benznidazole (BZN)” value is given as 4.6 fold. In addition, the “fold more active against amastigote forms than its triazole analog” value in series [1] (ratio of amastigote IC50 values, comparator is a literature value) is reported as 5.4 fold. Further, in series [2], the CC50 at 72 h was over 100 µM.

With `O=[N+]([O-])c1nccn1Cc1cc(-c2ccc(Oc3ccc(F)cc3)cc2)no1` [Compound 6b, 3-(4-(4-Fluorophenoxy)phenyl)-5-((2-nitro-1H-imidazol-1-yl)methyl)isoxazole], the “SI, selectivity index: CC50” value in series [1] was over 199.4. The IC50 in series [1] (setting [4]) is 0.5 ± 0.51 µM. The CC50 at 72 h in series [2] was over 100 µM.

With `Cc1ccc(Sc2ccc(-c3cc(Cn4ccnc4[N+](=O)[O-])on3)cc2)cc1` [Compound 6q, 5-((2-Nitro-1H-imidazol-1-yl)methyl)-3-(4-(P-tolylthio)phenyl)isoxazole], in series [1], the “SI, selectivity index: CC50” value is on record as over 5.8 and the “activity category (active / moderately active / inactive)” value is reported as “moderate activity”. For the same compound, the IC50 in series [1] (setting [4]) is 17.1 ± 0.24 µM. Moreover, the cytotoxic concentration (CC50) at 72 h in series [2] was over 100 µM.

Regarding `COc1ccc(Oc2ccc(-c3cc(Cn4ccnc4[N+](=O)[O-])on3)cc2F)cc1` [Compound 6n, 3-(3-Fluoro-4-(4-methoxyphenoxy)phenyl)-5-((2-nitro-1H-imidazol-1-yl)methyl)isoxazole], the “SI, selectivity index: CC50” value in series [1] was over 28.2. In addition, in series [1] (setting [4]), the IC50 worked out at 3.54 ± 0.21 µM. Also, the “fold less activity than 6g” value in series [1] (setting [5]) turned out to be 5.5 fold. In addition, the CC50 at 72 h in series [2] is over 100 µM.

Regarding `O=[N+]([O-])c1nccn1Cc1cc(-c2ccc(Oc3ccc(OC(F)(F)F)cc3)c(F)c2)no1` [Compound 6l, 3-(3-Fluoro-4-(4-(trifluoromethoxy)phenoxy)phenyl)-5-((2-nitro-1H-imidazol-1Yl)methyl)isoxazole], in series [1], the “SI, selectivity index: CC50” value is over 14.7. Further, the IC50 in series [1] (TULAHUEN, LLC-MK2, 72 h) was determined as 3.77 ± 0.07 µM.

`O=[N+]([O-])c1nccn1Cc1cc(-c2ccc(Oc3ccccc3)c(F)c2)no1` [Compound 6h, 3-(3-Fluoro-4-phenoxyphenyl)-5-((2-nitro-1H-imidazol-1-yl)methyl)isoxazole]: in series [1], the “SI, selectivity index: CC50” value is over 31.4 and the “activity category (active / moderately active / inactive)” value was “active”. The IC50 in series [1] (setting [4]) amounted to 3.18 ± 2.18 µM. Moreover, the 50% cytotoxic concentration (CC50) at 72 h in series [2] was over 100 µM.

In the case of `O=[N+]([O-])c1nccn1Cc1cc(-c2ccc(Oc3ccc(Cl)cc3)cc2)no1` [Compound 6c, 3-(4-(4-Chlorophenoxy)phenyl)-5-((2-nitro-1H-imidazol-1-yl)methyl)isoxazole], the “SI, selectivity index: CC50” value in series [1] was over 99.0. Also, in series [1] (setting [4]), the IC50 came out at 1.01 ± 1.13 µM. Also, the “fold less active than 6b” value in series [1] (setting [5]) is reported as 2 fold. Moreover, the cytotoxic concentration (CC50) at 72 h in series [2] was over 100 µM.

Take `O=[N+]([O-])c1nccn1Cc1cc(-c2ccc(Oc3ccc(F)cc3)c(F)c2)no1` [Compound 6i, 3-(3-Fluoro-4-(4-fluorophenoxy)phenyl)-5-((2-nitro-1H-imidazol-1-yl)methyl)isoxazole]: the “SI, selectivity index: CC50” value in series [1] is given as over 70.4. Also, the half-maximal inhibitory concentration (IC50) in series [1] (setting [4]) was found to be 1.42 ± 0.42 µM. The “fold less active than 6b” value in series [1] (setting [5]) was 2.8 fold. Further, the 50% cytotoxic concentration (CC50) at 72 h in series [2] was over 100 µM.

Consider `O=[N+]([O-])c1nccn1Cc1cc(-c2ccc(Oc3ccc(OC(F)(F)F)cc3)cc2)no1` [Compound 6e, 5-((2-Nitro-1H-imidazol-1-yl)methyl)-3-(4-(4-(trifluoromethoxy)phenoxy)phenyl)isoxazole], for which the “SI, selectivity index: CC50” value in series [1] is reported as over 80.1. For the same compound, in series [1] (setting [4]), the IC50 is 1.25 ± 0.71 µM. Also, in series [2], the cytotoxic concentration (CC50) at 72 h is over 100 µM.

Consider `O=[N+]([O-])c1nccn1Cc1cc(-c2ccc(Oc3ccc(Cl)cc3)c(F)c2)no1` [Compound 6j, 3-(4-(4-Chlorophenoxy)-3-fluorophenyl)-5-((2-nitro-1H-imidazol-1-yl)methyl)isoxazole], for which the “SI, selectivity index: CC50” value in series [1] is given as over 64.1. Further, in series [1] (setting [4]), the concentration for half-maximal inhibition (IC50) worked out at 1.56 ± 0.69 µM. The CC50 at 72 h in series [2] is over 100 µM.

As to `O=[N+]([O-])c1nccn1Cc1cn(-c2ccc(Oc3ccccc3)cc2)nn1` [Compound 4b], the half-inhibitory concentration (IC50) in series [3] was 6.6 µM.

`O=[N+]([O-])c1nccn1Cc1cc(-c2ccc(Sc3ccc(Cl)cc3)cc2)no1` [Compound 6p, 3-(4-((4-Chlorophenyl)thio)phenyl)-5-((2-nitro-1H-imidazol-1-yl)methyl)isoxazole]: in series [1], the “SI, selectivity index: CC50” value is listed as over 9.0. Moreover, the concentration for half-maximal inhibition (IC50) in series [1] (setting [4]) came to 11.1 ± 0.16 µM. Moreover, in series [2], the CC50 at 72 h is over 100 µM.

For the compound `Cc1ccc(Oc2ccc(-c3cc(Cn4ccnc4[N+](=O)[O-])on3)cc2F)cc1` [Compound 6m, 3-(3-Fluoro-4-(P-tolyloxy)phenyl)-5-((2-nitro-1H-imidazol-1-yl)methyl)isoxazole], the “SI, selectivity index: CC50” value in series [1] is over 13.5. The concentration for half-maximal inhibition (IC50) in series [1] (setting [4]) is 7.41 ± 3.22 µM. Also, in series [1] (setting [5]), the “fold less active than 6f” value is 4 fold. Besides, the CC50 at 72 h in series [2] is over 100 µM.

For `COc1ccc(Oc2ccc(-c3cc(Cn4ccnc4[N+](=O)[O-])on3)cc2)cc1` [Compound 6g, 3-(4-(4-Methoxyphenoxy)phenyl)-5-((2-nitro-1H-imidazol-1-yl)methyl)isoxazole], the “SI, selectivity index: CC50” value in series [1] is given as over 155.3. The IC50 in series [1] (setting [4]) amounted to 0.64 ± 0.05 µM. For the same compound, in series [2], the CC50 at 72 h is over 100 µM.

Take `O=[N+]([O-])c1nccn1Cc1cc(-c2ccc(Oc3ccc(Cl)c(Cl)c3)c(F)c2)no1` [Compound 6k, 3-(4-(3,4-Dichlorophenoxy)-3-fluorophenyl)-5-((2-nitro-1H-imidazol-1-yl)methyl)isoxazole]: in series [1], the “SI, selectivity index: CC50” value is given as over 11.8 and the “activity category (active / moderately active / inactive)” value was “moderate activity”. Further, the IC50 in series [1] (setting [4]) was 8.5 ± 2.06 µM. Further, the CC50 at 72 h in series [2] is over 100 µM.
